Laboratory results published in PubChem BioAssay (NCI).
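In this assay, cells in 96-well plates receive the compound at five concentrations for 48 hours. Endpoints are linearly interpolated between the surrounding concentrations. GI50 marks 50% less growth. TGI marks complete inhibition of growth.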

Tests used:
Assay in all cases: DTP human tumour cell line panel, 48 h
ACHN renal = system: ACHN renal
UACC-62 melanoma = system: UACC-62 melanoma
MALME-3M melanoma = system: MALME-3M melanoma
CCRF-CEM leukemia = system: CCRF-CEM leukemia
UACC-257 melanoma = system: UACC-257 melanoma
DU-145 prostate = system: DU-145 prostate
HOP-62 NSCLC = system: HOP-62 NSCLC
HCC-2998 colon = system: HCC-2998 colon
COLO 205 colon = system: COLO 205 colon
HS 578T breast = system: HS 578T breast

Structure (SMILES) | GI50 (ACHN renal) [µM] | TGI (ACHN renal) [µM] | GI50 (UACC-62 melanoma) [µM] | TGI (UACC-62 melanoma) [µM] | GI50 (MALME-3M melanoma) [µM] | TGI (MALME-3M melanoma) [µM] | GI50 (CCRF-CEM leukemia) [µM] | TGI (CCRF-CEM leukemia) [µM] | GI50 (UACC-257 melanoma) [µM] | TGI (UACC-257 melanoma) [µM] | GI50 (DU-145 prostate) [µM] | TGI (DU-145 prostate) [µM] | GI50 (HOP-62 NSCLC) [µM] | TGI (HOP-62 NSCLC) [µM] | GI50 (HCC-2998 colon) [µM] | TGI (HCC-2998 colon) [µM] | GI50 (COLO 205 colon) [µM] | TGI (COLO 205 colon) [µM] | GI50 (HS 578T breast) [µM] | TGI (HS 578T breast) [µM]
Cc1cc([N+](=O)[O-])c(NS(=O)(=O)c2cccc(C(=O)O)c2)cc1-c1cccnc1 | > 100 | > 100 | > 100 | > 100 | > 100 | > 100 | > 100 | > 100 | > 100 | > 100 | > 100 | > 100 | > 100 | > 100 | > 100 | > 100 | > 100 | > 100 |  | 
O=S(=O)(/C=C/c1ccc(F)cc1)Cc1ccc(CS(=O)(=O)/C=C/c2ccc(F)cc2)cc1 |  | > 100 |  | > 100 |  | > 100 |  | > 100 |  | > 100 |  |  |  | > 100 |  | > 100 |  | > 100 |  | 
O=C1c2cc3c(cc2[C@@H]2[C@H]1c1ccc([N+](=O)[O-])cc1C(=O)N2CCCBr)OCO3 | < 0.01 | < 0.01 | < 0.01 | < 0.01 | < 0.0189 | 0.168 |  |  | < 0.01 | > 100 | < 0.01 |  | < 0.01 | < 0.0486 | < 0.0125 | 0.117 | < 0.01 | > 100 | 0.381 | 11.5
C=C1CC2OC(=O)C(=C)C2C(O)C2C(=C)CCC12 (centres undefined) |  | 21.2 |  | 12.8 |  | 45.1 |  | 10.2 |  | 18.8 |  |  |  |  |  | 22.2 |  | 12.9 |  | 
COc1ccc2c(c1)C(=O)c1ccc(OC)cc1C2=S |  | > 100 |  | > 100 |  | > 100 |  | > 100 |  | > 100 |  |  |  | > 100 |  | > 100 |  | > 100 |  | 
NNC(=O)C1CCC(=O)N1S(=O)(=O)c1ccccc1 (centres undefined) |  | > 100 |  | > 100 |  | > 100 |  | > 100 |  | > 100 |  |  |  | > 100 |  | > 100 |  | > 100 |  | 
O=C1C(c2ccccc2)=C(O)c2cccc3cccc1c23 |  | > 100 |  | > 100 |  | > 100 |  | > 100 |  | > 100 |  |  |  |  |  | > 100 |  | > 100 |  | 
O=C1CCCCC1S(=O)(=O)c1ccccc1 (centres undefined) |  | > 100 |  | > 100 |  | > 100 |  | > 100 |  | > 100 |  |  |  | > 100 |  | > 100 |  | > 100 |  | 
OC(CCNC12CC3CC(CC(C3)C1)C2)c1ccccc1 (centres undefined) |  | > 100 |  | > 100 |  | > 100 |  | > 100 |  | > 100 |  |  |  | > 100 |  | > 100 |  | > 100 |  | 
CC(=O)[CH-]C(=O)c1ccccc1.CC(=O)[CH-]C(=O)c1ccccc1.CC[O-].CC[O-].[Hf+4] | > 100 | > 100 | > 100 | > 100 | > 100 | > 100 | 69.1 | > 100 |  |  |  |  | > 100 | > 100 | > 100 | > 100 | > 100 | > 100 |  | 
COc1ccc(/C=C/c2cc(OC)c(OC)c(OC)c2)cc1 |  | > 100 |  | > 100 |  | 74.3 |  | > 100 |  | > 100 |  |  |  | 60.1 |  | 15.7 |  | 11 |  | 
NC(=O)CN(CC(N)=O)C(N)=O |  | > 100 |  | > 100 |  | > 100 |  | > 100 |  | > 100 |  |  |  |  |  |  |  | > 100 |  | 
O=C(O)CC[C@H](NC(=O)c1ccc(-n2nc3ccc(O)cc3nc2=O)cc1)C(=O)O |  | > 100 |  | > 100 |  | > 100 |  | > 100 |  | > 100 |  |  |  | > 100 |  | > 100 |  | > 100 |  | 
COc1c(O)c2c3c(cc(C)cc3c1C(C)C)OC2 |  | > 100 |  | > 100 |  | > 100 |  | > 100 |  | > 100 |  |  |  |  |  | > 100 |  | > 100 |  | 
O=C1C=CC(=O)C2=C1[C@@H](O)C1CC=CC3C(=O)O[C@@H]2C31 (some centres undefined) |  | > 69.9 |  | 35.8 |  | 34.6 |  | 42.9 |  | > 57.5 |  |  |  | > 100 |  | 34.6 |  | 37 |  | 
COc1cc2ccnc3c2c(c1OC)-c1coc(SC)c1-3 |  | > 100 |  | > 100 |  | > 100 |  |  |  | > 100 |  |  |  | > 100 |  | > 100 |  | > 100 |  | 
Cc1nc(Nc2ccccc2)sc1C(=O)CC(=O)C(=O)Nc1c(C(C)C)cccc1C(C)C |  | > 100 |  | > 100 |  | > 100 |  | > 100 |  | > 100 |  |  |  | > 100 |  | > 100 |  | > 100 |  | 
CCOc1cc2c(C(=O)CC)c(O)ccc2o1 |  | > 100 |  | > 52.8 |  | > 100 |  | > 85.1 |  | > 100 |  |  |  | > 100 |  | > 100 |  | > 100 |  | 
CCOC(C[C@H](O[Si](C)(C)C(C)(C)C)[C@H]1COC(=S)S1)OCC |  | > 100 |  |  |  | > 100 |  | > 100 |  | > 100 |  |  |  | > 100 |  | > 100 |  | > 100 |  | 
COc1ccc(C/C(C)=C(/c2ccc(OCCN3CCCCC3)cc2)c2ccc(OC(=O)NCc3ccccc3)cc2)cc1 | 0.434 | 0.78 | 0.455 | 0.817 | 0.395 | 0.776 | 0.523 | 1.55 | 0.472 | 0.917 | 0.442 | 0.805 | 0.419 | 0.825 | 0.435 | 0.797 | 0.437 | 0.9 |  | 
CCCCCCC[CH2][Sn]([CH2]CCCCCCC)([O]c1cccc2cccnc12)[O]c1cccc2cccnc12 | 2.98 | 11.1 | 1.82 | 3.9 | 1.44 | 2.9 | 0.506 | 3.25 | 1.56 | 4.56 |  |  | 2.11 | 3.67 | 1.99 | 3.43 | 1.86 | 3.41 |  | 
